# From patent publication US20230061736A1, “GPR119 AGONISTS” (Kallyope, Inc., priority 2019, published 2023)
# Biological target: T1, human GPR119 (hGPR119) (Homo sapiens, UniProt Q8TDV5)
# T1 construct: expressed in transfected cells
# T1 sequence (Q8TDV5 1-335): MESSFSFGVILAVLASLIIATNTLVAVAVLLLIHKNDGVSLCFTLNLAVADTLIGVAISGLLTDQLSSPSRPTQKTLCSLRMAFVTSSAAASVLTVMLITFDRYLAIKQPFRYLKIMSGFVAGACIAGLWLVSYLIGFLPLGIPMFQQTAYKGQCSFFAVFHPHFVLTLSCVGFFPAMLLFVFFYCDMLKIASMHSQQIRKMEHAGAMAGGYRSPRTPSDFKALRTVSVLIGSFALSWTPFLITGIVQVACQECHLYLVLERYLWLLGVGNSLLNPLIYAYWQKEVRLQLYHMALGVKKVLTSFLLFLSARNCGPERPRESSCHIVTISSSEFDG
# Assay: cAMP accumulation assay (cAMP Gs dynamic HTRF kit)
# Type: cell-based
# Details: CHO-K1 cells stably expressing hGPR119, 4-parameter fit; for Emax: 1 h, % activity normalized to Max/Min controls; for EC50: cAMP accumulation
# Procedure, shortened: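 CHO-K1 cells stably expressing hGPR119, used as assay-ready frozen stocks at ~10,000 cells/well, exposed to compound dose-response in stimulation buffer with Tween 80 for 60 min at 37° C. cAMP read by HTRF (665/620 nm ratio), normalised to Max/Min controls; EC50 and Max activity from 4-parameter fit.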
SMILES,Emax [%],EC50 [nM]
"O=C(Cc1ccc(OCCCC2CCN(c3ncc(Cl)cn3)CC2)cc1F)N1CC(CNC[C@H](O)[C@H](O)[C@H](O)CO)C1 [Example 165, 2-[4-[3-[1-(5-chloropyrimidin-2-yl)-4-piperidyl]propoxy]-2-fluoro-phenyl]-1-[3-[[[(2S,3S,4R)-2,3,4,5-tetrahydroxypentyl]amino]methyl]azetidin-1-yl]ethanone]",100 to 130,≤ 100
"O=C(Cc1ccc(OCCCC2CCN(c3ncc(Cl)cn3)CC2)cc1F)N1CC(CNC[C@H](O)[C@@H](O)[C@H](O)CO)C1 [Example 166, 2-[4-[3-[1-(5-chloropyrimidin-2-yl)-4-piperidyl]propoxy]-2-fluoro-phenyl]-1-[3-[[[(2S,3R,4R)-2,3,4,5-tetrahydroxypentyl]amino]methyl]azetidin-1-yl]ethanone]",100 to 130,≤ 100
"O=C(Cc1ccc(OCCCC2CCN(c3ncc(Cl)cn3)CC2)cc1F)N1CC(CNC[C@@H](O)[C@H](O)[C@H](O)CO)C1 [Example 167, 2-[4-[3-[1-(5-chloropyrimidin-2-yl)-4-piperidyl]propoxy]-2-fluoro-phenyl]-1-[3-[[[(2R,38,4R)-2,3,4,5-tetrahydroxypentyl]amino]methyl]azetidin-1-yl]ethanone]",100 to 130,≤ 100
"O=C(Cc1ccc(OCCCC2CCN(c3ncc(Cl)cn3)CC2)cc1F)N1CC[C@H](CNC[C@H](O)[C@H](O)[C@H](O)CO)C1 [Example 168, 2-[4-[3-[1-(5-chloropyrimidin-2-yl)-4-piperidyl]propoxy]-2-fluoro-phenyl]-1-[(3R)-3-[[[(2S,3S,4R)-2,3,4,5-tetrahydroxypentyl]amino]methyl]pyrrolidin-1-yl]ethanone]",100 to 130,≤ 100
"O=C(Cc1ccc(OCCCC2CCN(c3ncc(Cl)cn3)CC2)cn1)N1CC(CNC[C@H](O)[C@@H](O)[C@H](O)[C@H](O)CO)C1 [Example 169, 2-[5-[3-[1-(5-chloropyrimidin-2-yl)-4-piperidyl]propoxy]-2-pyridyl]-1-[3-[[[(2S,3R,4R,5R)-2,3,4,5,6-pentahydroxyhexyl]amino]methyl]azetidin-1-yl]ethanone]",100 to 130,1000 to 10000
"O=C(Cc1ncc(OCCCC2CCN(c3ncc(Cl)cn3)CC2)cc1F)N1CC(CNC[C@H](O)[C@@H](O)[C@H](O)[C@H](O)CO)C1 [Example 170, 2-[5-[3-[1-(5-chloropyrimidin-2-yl)-4-piperidyl]propoxy]-3-fluoro-2-pyridyl]-1-[3-[[[(2S,3R,4R,5R)-2,3,4,5,6-pentahydroxyhexyl]amino]methyl]azetidin-1-yl]ethanone]",100 to 130,100 to 1000
"O=C(NCCS(=O)(=O)O)C1CN(C(=O)Cc2ccc(OCCCC3CCN(c4ncc(Cl)cn4)CC3)cc2F)C1 [Example 171, 2-[[1-[2-[4-[3-[1-(5-chloropyrimidin-2-yl)-4-piperidyl]propoxy]-2-fluoro-phenyl]acetyl]azetidine-3-carbonyl]amino]ethanesulfonic acid]",100 to 130,100 to 1000
"O=C(NCCCS(=O)(=O)O)C1CN(C(=O)Cc2ccc(OCCCC3CCN(c4ncc(Cl)cn4)CC3)cc2F)C1 [Example 172, 3-[[1-[2-[4-[3-[1-(5-chloropyrimidin-2-yl)-4-piperidyl]propoxy]-2-fluoro-phenyl]acetyl]azetidine-3-carbonyl]amino]propane-1-sulfonic acid]",100 to 130,≤ 100
"O=C(NCCCCS(=O)(=O)O)C1CN(C(=O)Cc2ccc(OCCCC3CCN(c4ncc(Cl)cn4)CC3)cc2F)C1 [Example 173, 4-[[1-[2-[4-[3-[1-(5-chloropyrimidin-2-yl)-4-piperidyl]propoxy]-2-fluoro-phenyl]acetyl]azetidine-3-carbonyl]amino] butane-1-sulfonic acid]",100 to 130,
"O=C(NCCCCCS(=O)(=O)O)C1CN(C(=O)Cc2ccc(OCCCC3CCN(c4ncc(Cl)cn4)CC3)cc2F)C1 [Example 174, 5-[[1-[2-[4-[3-[1-(5-chloropyrimidin-2-yl)-4-piperidyl]propoxy]-2-fluoro-phenyl]acetyl]azetidine-3-carbonyl]amino]pentane-1-sulfonic acid]",100 to 130,100 to 1000
